Some test systems named below: SARS-CoV-2 T169I variant; SARS-CoV-2 S144A variant; SARS-CoV-2 M49L variant; SARS-CoV-2 E166G variant; SARS-CoV-2 E166Q variant; SARS-CoV-2 E166H variant; SARS-CoV-2 E166S variant; SARS-CoV-2 E166L variant.
Common to all, as to assay type: cell-based
The test system of experiment [1] is SARS-CoV-2 M49L+S144A variant.
Experiment [2] relates to SARS-CoV-2 L50F+E166V variant.
Experiment [3] has as its system SARS-CoV-2 replicon with M49L + S144A + T169I.
Experiment [4] relates to SARS-CoV-2 M49L+S144A+T169I variant.
The test system of experiment [5] is SARS-CoV-2 replicon with M49L + E166A.
Experiment [6] concerns SARS-CoV-2 NIR-EV L50F+E166V.
The subject of experiment [7] is SARS-CoV-2 M49L+E166A variant.
Experiment [8] deals with SARS-CoV-2 ENS-EV2 (M49L, S144A and T169I in Mpro).
Experiment [9] deals with SARS-CoV-2 ENS-EV1 (M49L and S144A in Mpro).
Experiment [10] has as its system SARS-CoV-2 replicon with E166A.

Bounds are passed on as bounds.

On to `Cn1cnc(Cn2c(=O)[nH]/c(=N\c3cc4cn(C)nc4cc3Cl)n(Cc3cc(F)c(F)cc3F)c2=O)n1` [ENS, Ensitrelvir], for which the “Fold resistance, highest in VeroE6 or A549-hACE2 cells” value (“Fold resistance, highest” for short) in experiment [1] is given as “up to 290 fold”; in experiment [2], “up to 14 fold”; with SARS-CoV-2 T169I variant, “up to 4.8 fold”; in [4], “up to 660 fold”; in [6], “up to 36 fold”; in the experiment with SARS-CoV-2 S144A variant, “up to 21 fold”. The “Fold resistance, highest” value is “up to 180 fold” in experiment [7]; “up to 71 fold” in the experiment with SARS-CoV-2 M49L variant; less than 5 fold in the experiment on SARS-CoV-2 E166G variant; “up to 280 fold” in [8]; less than 5 fold with SARS-CoV-2 E166Q variant; greater than 5 fold in the experiment on SARS-CoV-2 E166H variant. Moreover, the results for the “Fold resistance, highest” value (in [9]; in the experiment with SARS-CoV-2 E166S variant) were “up to 110 fold” and greater than 5 fold, respectively. In addition, the “Resistance of replicon (% RLU in treated cultures)” value in [3] is recorded as “highest resistance”; in experiment [5] it was “lower resistance”.
For the compound `CC(C)(C)[C@H](NC(=O)C(F)(F)F)C(=O)N1C[C@H]2[C@@H]([C@H]1C(=O)N[C@H](C#N)C[C@@H]1CCNC1=O)C2(C)C` [NIR, Nirmatrelvir], the “Resistance of replicon (% RLU in treated cultures)” value in experiment [5] and in experiment [10] was “relatively high resistance” each time. Also, the “Fold resistance, highest” value is recorded as less than 5 fold with SARS-CoV-2 E166G variant; less than 10 fold in experiment [8]; less than 5 fold with SARS-CoV-2 E166Q variant; greater than 5 fold with SARS-CoV-2 E166L variant; less than 10 fold in experiment [9]; greater than 5 fold in the experiment with SARS-CoV-2 E166S variant.
